Test results from ChEMBL document CHEMBL3860092, “Recent progress on the discovery of antiamoebic agents” (Bioorg Med Chem Lett, 2016).

How the values were obtained:
[1] = Cytotoxicity against mouse Melan-a cells assessed as reduction in cell viability after 48 hrs by MTT assay; assay type: toxicity
[2] = tested on: Entamoeba histolytica; assay: Antiamoebic activity against Entamoeba histolytica HM-1:IMSS trophozoites after 72 hrs by microdilution method; assay type: functional

| SMILES | IC50 at 48 h [1] [µM] | IC50 [2] [µM] |
| --- | --- | --- |
| Cc1ncc([N+](=O)[O-])n1CCOC(=O)Nc1ccc(OCc2ccc(C#N)cc2)cc1 | > 50 | 0.26 |
| Cc1ncc([N+](=O)[O-])n1CCO [METRONIDAZOLE] | – | 1.78 |
| Cc1ncc([N+](=O)[O-])n1CCOC(=O)Nc1ccc(OCc2ccc(C(F)(F)F)cc2)cc1 | > 50 | 0.24 |
| Cc1ncc([N+](=O)[O-])n1CCOC(=O)Nc1ccc(OCc2ccc(F)cc2)cc1 | > 50 | 0.08 |
| Cc1ncc([N+](=O)[O-])n1CCOC(=O)Nc1ccc(OCc2ccc(F)c(F)c2)cc1 | > 50 | 0.26 |
| Cc1ncc([N+](=O)[O-])n1CCOC(=O)Nc1ccc(OCc2cccc(Cl)c2)cc1 | > 50 | 0.15 |
